Measured values published in US10059742B2, “Peptides and methods and uses thereof for preventing retinal disorders” (priority 2012, dated 2018).
Ends that are not written are not given here.

Assays:
[1] = tested on: axotomized retinal ganglion cells (RGCs); experiment: Optic nerve transection (axotomy): RGC survival at 14 days; format: in vivo, rat
Method: Optic nerve transection was performed as previously described (Koeberle and Ball 1998; Koeberle and Bahr 2008; Koeberle, Wang et al. 2010; Magharious, D'Onofrio et al. 2011; Magharious, D'Onofrio et al. 2011; Monnier, D'Onofrio et al. 2011). Animals were placed in a stereotaxic frame and anesthetized with Isoflurane (2%; 0.8 L/min oxygen flow rate) delivered through a gas anesthesia mask. Lidocaine eye drops were used to anesthetize the cornea and ophthalmic eye ointment was applied to the cornea to prevent desiccation during surgery. […] In order to allow access to the optic nerve and surrounding dura mater sheath, the eye was rotated laterally by applying traction to the extraocular muscles. The dural sheath surrounding the optic nerve was cut longitudinally, to avoid damaging blood vessels supplying the retina. The optic nerve was gently lifted from the meningeal sheath and transected within 2 mm of the back of the eye. In order to retrogradely label RGCs, gelfoam soaked in 2% Fluorogold (Sigma) was placed over the transected optic nerve stump. The orbital contents were returned to their original location and the initial incision was closed. The optic nerve crush procedure was performed using a similar approach; however, the optic nerve was crushed using fine self-closing forceps for 6 seconds as previously described (Magharious, D'Onofrio et al. 2011; Monnier, D'Onofrio et al. 2011). The orbital contents were then similarly returned to their original location and the initial incision was closed. Following surgery, rats were placed in a recovery cage under a heat lamp and given Ketoprofen to ease post-surgical recovery.
The procedures for intraocular and optic nerve injections have been previously described (Koeberle and Ball 1998; Koeberle and Bahr 2008; Koeberle, Wang et al. 2010; Magharious, D'Onofrio et al. 2011; Magharious, D'Onofrio et al. 2011; Monnier, D'Onofrio et al. 2011). Animals received intraocular injections of each peptide at 3 and 8 days postaxotomy, prior to the onset of RGC apoptosis which occurs at 4-5 days after axotomy. Animals were placed in a stereotaxic frame and anesthetized with isoflurane, delivered through a gas anesthetic mask. The cornea was anesthetized using Alcaine eye drops (Alcon) prior to intraocular injections. A pulled glass micropipette attached to a 10 μl Hamilton syringe via a hydraulic coupling through PEEK tubing was used to deliver 4 μl of a peptide solution (10 mg/ml) into the vitreous chamber of the eye, posterior to the limbus. Care was taken to prevent damage to the lens or anterior structures of the eye. The pipette was held in place for 5 seconds after injection and slowly withdrawn from the eye to prevent reflux. Injections were performed using a surgical microscope in order to visualize pipette entry into the vitreous chamber and confirm delivery of the injected solution.
To directly target RGCs, peptide solutions were injected into the transected optic nerve stump using a 10 microliter Hamilton syringe. A total of 5 microliters of peptide suspension (10 mg/ml) were injected. The majority of the injected fluid will reflux out of the optic nerve during this procedure, so the remaining pool of peptide suspension is left in place when returning the orbital contents to their original positions.
For intraperitoneal injections, 1 ml of saline containing 0.5 mg of dissolved peptide was delivered via a 25 gauge needle attached to a 5 ml syringe, following rapid anesthesia with isoflurane to incapacitate the animal.
For eye drop application of C-terminal peptides, animals were sedated with isoflurane and placed in a stereotaxic frame, in order to reduce the blink reflex. Twenty-five microliters of a peptide suspension (1 mg/ml) was delivered to the surface of the cornea using a micropipetter with a sterile micropipette tip. Eye drops were delivered once per day, on day 1, 2, 3, 4, 5, 6, and day 7 after axotomy. […]

[2] = tested on: middle cerebral artery occlusion (MCAO) in adult rats; experiment: Thromboembolic middle cerebral artery occlusion (MCAO): brain infarct volume (TTC staining); format: in vivo, rat; details: Arginine 9-mer-conjugated peptides; intravenous (tail-vein) 1 mg/kg; 48 hours after MCAO; relative to control
Method: (§1) In order to examine the effects of the peptide therapeutics described herein, a thromboembolic model of middle cerebral artery occlusion that closely mimics human ischemic brain stroke was used: a clotted segment of blood is injected into the origin of the middle cerebral artery to block blood flow in the corresponding vascular territory of the lateral cerebrum (Wang, Yang et al. 2001).
(§2) Following deep isoflurane anesthesia via a nose-cone, fur was shaved from the ventral aspect of the neck. The shaved skin was cleaned twice with alternating applications of Proviodine (iodine detergent solution) and 70% ethanol. Following a final application of Proviodine, the surgical field was draped and a midline incision made in the ventral skin and fascia of the neck. Under an operating microscope, the right common carotid artery (CCA), the right external carotid artery […], and the right internal carotid artery […] were carefully isolated and separated from the adjacent vagus nerve. A 6-0 silk suture was loosely tied at the origin of the ECA, and another suture was used to ligate the ECA distally. A sterile modified PE 10 catheter was introduced into the lumen of the right ECA via a small puncture. Ten microliters of blood was withdrawn into the catheter and retained for 15 minutes to allow formation of a clot. The fresh autologous pre-formed clot was used for MCA occlusion. The right CCA and the right ICA were temporarily clamped using microvascular clips. The PE 50 catheter containing a 20 mm long fibrin rich clot was attached to 100 μl Hamilton syringe and introduced into the lumen of the external carotid artery via a small incision. The suture around the origin of the external carotid artery was tightened around the intraluminal catheter to prevent bleeding, and the microvascular clip on the internal carotid artery was removed. The catheter was gently advanced from the ECA into the lumen of the ICA and upwards to the origin of the middle cerebral artery (a total of 17 mm in distance from the bifurcation of the CCA). At this point, the end of the catheter is 1-2 mm away from the origin of the middle cerebral artery. Over 10 seconds, the clot (3.5 μl volume) was gently injected together with 5 μl of sterile saline within the catheter. The catheter was removed 5 minutes after injection, and the right ECA was ligated at its origin. […]
(§3) 48 hours after MCA occlusion isoflurane anesthetized rats were euthanized by decapitation. […] Infarct volumes were calculated from scanned images of the coronal surfaces of brain slices, using the following formula: Infarct volume=(volume of uninjured hemisphere−(volume of injured hemisphere−measured infarct volume))/volume of uninjured hemisphere)×100. […]

[3] = tested on: middle cerebral artery occlusion (MCAO) in adult rats; experiment: MCAO: neurological deficits (modified Bederson scoring system); format: in vivo, rat; details: Arginine 9-mer-conjugated peptides; intravenous 1 mg/kg; scored 8, 24 and 48 hours after MCAO; relative to control
Method: as §1
as §2, with “origin. Body temperature was maintained at 37° C. with a heating pad for the duration of surgery, after which the surgical field was closed with 4-0 silk sutures. Subcutaneous injections of Buprenorphine (0.05 mg/kg) were administered to minimize post-surgical discomfort.” for “origin.”
Neurological deficits were recorded at 8, 24 and 48 hours after ischemic injury. Neurological deficits were determined using a modified Bederson scoring system. […]

[4] = tested on: middle cerebral artery occlusion (MCAO) in adult rats; experiment: MCAO: brain edema of the injured hemisphere; format: in vivo, rat; details: Arginine 9-mer-conjugated peptides; intravenous 1 mg/kg; 48 hours after MCAO; relative to control
Method: as §1
Following deep isoflurane anesthesia via a nose-cone, fur was shaved from the ventral aspect of the neck. The shaved skin was cleaned twice with alternating applications of Proviodine (iodine detergent solution) and 70% ethanol. Following a final application of Proviodine, the surgical field was draped and a midline incision made in the ventral skin and fascia of the neck. Under an operating microscope, the right common carotid artery (CCA), the right external carotid artery […], and the right internal carotid artery […] were carefully isolated and separated from the adjacent vagus nerve. […]
as §3

[5] = tested on: retinal ganglion cells (RGCs); experiment: Retinal ischemia (ophthalmic artery ligation): RGC survival at 14 days; format: in vivo, rat; details: ophthalmic vessels ligated 45 minutes; intravenous 500 μg at 1 day and 8 days after injury; 14 days after stroke
Method: The approach for temporary retinal ischemia (ophthalmic artery ligation) was similar with a few exceptions. this procedure has been previously described (Tatton, Chalmers-Redman et al. 2001). Since the optic nerve was not damaged in this procedure, RGCs had to be retrogradely labeled prior to ischemia. […] Injections were performed under gas anesthetic in a stereotaxic apparatus. […] Injections were carried out using a 10 μl Hamilton syringe actuated by a computer controlled Picopump (World Precision Instruments). […] The needle was left in place for 10 min after each injection and slowly withdrawn to prevent reflux of the injected solutions up the needle tract. The surgical approach to the optic nerve was identical to that described for optic nerve transection. After a longitudinal cut was made in the meningeal sheath surrounding the optic nerve, the nerve was gently lifted out of the sheath. The meningeal sheath including the ophthalmic artery was then clamped using a calibrated micro-vessel clamp for 45 minutes, after which the clamp was removed to permit vascular reperfusion. […]
Eyes were enucleated, the cornea and lens were removed and the remaining eye cups containing the retinas were fixed in 4% paraformaldehyde at 14 days postaxotomy. […] RGC densities were grouped by retinal eccentricity (inner, middle, outer), and expressed as mean±SEM. […]

[6] = tested on: cultured post-natal cortical neurons; experiment: Cortical neuron survival after glutamate (crystal violet assay); format: cell-based, rat; details: 5 mM glutamate, 24 hours; increasing volumes of 10 mg/ml peptide stock; relative to control
Method: Cortical neuron cultures were made from newborn (P5) rat pups. Cortical samples were triturated 30× using a P1000 pipettor in cold Dubelcco's PBS+glucose. Neurons were plated in 24 well plates coated with poly-d-lysine. 100,000 cells/well were plated in cold Neurobasal A medium+glutamax+penicillin/streptomycin. Cultures were placed in an incubator (37 Celsius, 5% CO2) for 7 days, with half the media changed after 3 days.
After 7 days in culture, the media was replaced with fresh media containing 5 mM glutamate. Experimental samples received various amounts of each peptide, whereas controls received an equivalent volume of PBS (vehicle). After 24 hours, cell survival was quantified using the crystal violet assay: Media was removed from the cells and 200 microliters of 0.2% crystal violet (dissolved in 20% methanol:80% H2O) was added to each well. After 5 minutes, wells were rinsed with distilled water and the plates were dried. Crystal violet was eluted from the cells using 0.1 M sodium citrate in 50% ethanol. 100 microliter samples from each well were then transferred to 96 well plates and absorbance was read at 540 nm. Results were expressed as the relative fold-change in comparison to the control samples that received buffer.

[7] = Arginine 9-mer (R9)-conjugated peptides, eye drops (1 mg/ml, 25 microliters) once per day, days 1-7 after axotomy, 14 days after axotomy
[8] = 14 days postaxotomy, TAT-conjugated peptide, intraocular injection 10 mg/ml at 3 and 8 days

| Substance | RGC survival relative to control [1, 7] | brain infarct volume [2] | neurological deficits (Bederson score) [3] | brain edema (swelling) [4] | increase in RGC survival compared to controls [1, 8] [fold] | RGC density as share of the normal density of 2500 cells/mm^2 ([1]; 14 days postaxotomy, TAT-conjugated peptide, nerve injection 10 mg/ml) [%] | increase in RGC survival compared to controls ([1]; 14 days postaxotomy, TAT-conjugated peptide, single nerve injection 10 mg/ml at time of axotomy) [fold] | RGC survival after ischemic (stroke) injury [5] | cortical neuron survival [6] | RGC survival relative to control ([1]; 14 days postaxotomy, TAT-conjugated peptide, intraperitoneal (IP) injections, 500 μg per injection) | RGC survival relative to control ([1]; 14 days postaxotomy, TAT-conjugated peptide, nerve injection) |
| --- | --- | --- | --- | --- | --- | --- | --- | --- | --- | --- | --- |
| Kv2.1: R9-conjugated Kv2.1 C-terminal peptide HGSTRDQSI (SEQ ID NO:2) (also: R9 conjugated, site not given here; listed as Homo sapiens) | significantly enhanced RGC survival | significantly reduced | significantly reduced neurological deficits | significantly reduced brain edema |  |  |  |  |  |  |  |
| PTEN: R9 (RRRRRRRRR)-conjugated rat PTEN phosphatase C-terminal peptide DQHSQITKV (SEQ ID NO:1) (RRRRRRRRRDQHSQITKV) | significantly enhanced RGC survival | significantly reduced | significantly reduced neurological deficits |  |  |  |  |  |  |  |  |
| TAT-Kv2.1: TAT domain conjugated to Kv2.1 voltage-gated potassium channel C-terminal peptide HGSTRDQSI (SEQ ID NO:2) (also: TAT conjugated, site not given here; listed as Homo sapiens) |  |  |  |  | 3 | ~80 | 5 | significantly enhanced RGC survival | dose-dependent survival-promoting effect |  |  |
| hPTEN: R9-conjugated human PTEN phosphatase C-terminal peptide DQHTQITKV (SEQ ID NO:9) | significantly enhanced RGC survival | significantly reduced | significantly reduced neurological deficits |  |  |  |  |  |  |  |  |
| iNOS: R9-conjugated iNOS C-terminal peptide LEEPKGTRL (SEQ ID NO:8), MCAO tests (also: R9 conjugated, site not given here; listed as Homo sapiens) |  | significantly reduced | significantly reduced neurological deficits | significantly reduced brain edema | 2 |  |  |  |  | little or no effect | little or no effect |
